From paper PMC5074076, “Novel minimal physiologically-based model for the prediction of passive tubular reabsorption and renal excretion clearance” (European Journal of Pharmaceutical Sciences, 2016)
Read-outs that look alike come from different tables or passages of the source.

Columns and labels:
[1] = Observed clearance ratio and fraction reabsorbed (Freab, Freab′) calculated from CLR, fu,p and GFR; settings: for Freab: observed/apparent, 1 - CLR/(GFR x fu,p), GFR 120 mL/min
Protocol: The clearance ratio was calculated from clinical data using Eqs. […] For the remaining drugs the fraction reabsorbed (Freab) was calculated using Eq.
GFR values for healthy subjects may vary as a result of biological as well as inter-individual variation and also the method of measurement. […] Individual GFR values for subjects in clinical trials databases were generally not available.
In the proposed model, the nephron is represented as five compartments, namely the glomerulus and four tubular regions, as depicted in Fig. 1. The tubular compartments in the model, listed in anatomical order starting from the glomerulus are: the proximal tubule (PT), the loop of Henle (LoH), the distal tubule (DT) and the collecting duct (CD). […] The relationship between Freab′ and Freab is shown in Eq. (11). The predicted overall Freab′ was calculated from the predicted Freab′ in each (i) tubular region (Freab,i′), as shown in Eq. (12).

[2] = Ionisation classification at pH 6.5 from pKa; format: physicochemical; settings: predominant species (> 50%) at pH 6.5 from measured or calculated pKa
Source text: (§1) The pKa values associated with ionisable centres identified within a given drug were used to calculate the fraction of drug ionised at pH 6.5. Drugs were then classified into groups as follows: drugs with > 50% unionised at pH 6.5 were classified as “Neutral”; drugs with > 50% ionised as mono −/di −/tri-protic acids or bases were classified as “Acid” or “Base”, respectively; “Zwitterions” were classified as drugs with > 50% ionised, with the major ionised species having no net charge; all other drugs were classified as amphoteric. […] LogD6.5 for neutral, amphoteric and zwitterion drugs were assumed to be equal to LogD7.4.

[3] = LogD6.5 estimated from LogD7.4 and pKa; settings: calculated from pKa and LogD7.4
Source text: as §1

[4] = cited from earlier work
[5] = Caco-2 apparent permeability (Papp), apical to basolateral, pH 6.5-7.4 gradient, efflux inhibitor cocktail; settings: human, Caco-2, pH 6.5
[6] = calculated from observed CLR, fu,p and GFR
[7] = healthy adult subjects, overall weighted mean of literature values, absolute (not normalised), ref Supplementary Results Table S2.1
[8] = healthy subjects, plasma and urine data from same subjects, normalised for subject weight and body surface area where necessary, ref Table S2.1
[9] = overall weighted mean of values obtained from a literature survey, ref Table S2.1

C[C@]12C=CC(=O)C=C1CC[C@@H]1[C@@H]2[C@@H](O)C[C@@]2(C)[C@H]1CC[C@]2(O)C(=O)CO [Prednisolone]
Apparent Freab [1, 6]: 0.099 | Apparent Freab’ [1, 6]: 0.100 | Freab [1]: 0.10 | Ionisation at pH 6.5 [2]: Neutral | LogD6.5 [3]: […] | CLR [4, 7]: 34.3 mL/min | Overall weighted mean CLR [4, 8]: 34.3 mL/min | CLR Observed [4, 9]: 34.30 mL/min

CC[C@@H](C(N)=O)N1CCCC1=O [Levetiracetam]
Apparent Freab [1, 6]: 0.636 | Apparent Freab’ [1, 6]: 0.641 | Freab [1]: 0.64 | Ionisation at pH 6.5 [2]: Neutral | CLR [4, 7]: 39.4 mL/min | Overall weighted mean CLR [4, 8]: 39.4 mL/min | CLR Observed [4, 9]: 39.35 mL/min | Papp A→B at 2 h [5]: 15.7 ×10⁻⁶ cm/s

COc1c(N2C[C@@H]3CCCN[C@@H]3C2)c(F)cc2c(=O)c(C(=O)O)cn(C3CC3)c12 [Moxifloxacin]
Ionisation at pH 6.5 [2]: Zwitterion

Cc1cccc(C)c1OCC(C)N (stereo not shown) [Mexiletine]
Apparent Freab [1, 6]: -0.252 | Apparent Freab’ [1, 6]: -0.254 | CLR [4, 7]: 71.6 mL/min | Overall weighted mean CLR [4, 8]: 71.6 mL/min | CLR Observed [4, 9]: 71.61 mL/min

CN(C)CCCC1(c2ccc(F)cc2)OCc2cc(C#N)ccc21 (stereo not shown) [Citalopram]
Apparent Freab [1, 6]: -0.086 | Apparent Freab’ [1, 6]: -0.087 | Ionisation at pH 6.5 [2]: Base | CLR [4, 7]: 65.2 mL/min | Overall weighted mean CLR [4, 8]: 65.2 mL/min | CLR Observed [4, 9]: 65.17 mL/min

Cc1cc(=O)n(-c2ccccc2)n1C [Antipyrine]
Apparent Freab ([1]; human, in vivo): 0.989 | Apparent Freab’ ([1]; human, in vivo): 0.997 | Ionisation at pH 6.5 [2]: Neutral | CLR ([4]; human, in vivo): 1.22 mL/min | CLR Observed ([4]; human, in vivo): 1.22 mL/min | Overall weighted mean CLR ([4]; human, in vivo): 1.2 mL/min

Cc1ncc([N+](=O)[O-])n1CCO [Metronidazole]
Apparent Freab [1, 6]: 0.918 | Apparent Freab’ [1, 6]: 0.925 | Freab [1]: 0.92 | Ionisation at pH 6.5 [2]: Neutral | CLR [4, 7]: 9.64 mL/min | Overall weighted mean CLR [4, 8]: 9.6 mL/min | CLR Observed [4, 9]: 9.64 mL/min | Papp A→B at 2 h [5]: 64.7 ×10⁻⁶ cm/s

Cn1c(=O)c2c(ncn2C)n(C)c1=O [Caffeine]
Apparent Freab [1, 6]: 0.987 | Apparent Freab’ [1, 6]: 0.995 | Freab [1]: 0.99 | Freab ([1]; listed as caffeine): ≥ 0.99 | CLR [4, 7]: 1.06 mL/min | Overall weighted mean CLR [4, 8]: 1.1 mL/min | CLR Observed [4, 9]: 1.06 mL/min

CC(=O)NC[C@H]1CN(c2ccc(N3CCOCC3)c(F)c2)C(=O)O1 [Linezolid]
Apparent Freab [1, 6]: 0.576 | Apparent Freab’ [1, 6]: 0.581 | Freab [1]: 0.58 | CLR [4, 7]: 39.5 mL/min | Overall weighted mean CLR [4, 8]: 39.5 mL/min | CLR Observed [4, 9]: 39.54 mL/min

CCCc1cc(=O)[nH]c(=S)[nH]1 [Propylthiouracil]
Apparent Freab [1, 6]: 0.833 | Apparent Freab’ [1, 6]: 0.840 | Freab [1]: 0.83 | CLR [4, 7]: 3.20 mL/min | Overall weighted mean CLR [4, 8]: 3.2 mL/min | CLR Observed [4, 9]: 3.20 mL/min

C[C@H]1O[C@@H](O[C@H]2[C@@H](O)C[C@H](O[C@H]3[C@@H](O)C[C@H](O[C@H]4CC[C@@]5(C)[C@H](CC[C@@H]6[C@@H]5C[C@@H](O)[C@]5(C)[C@@H](C7=CC(=O)OC7)CC[C@]65O)C4)O[C@@H]3C)O[C@@H]2C)C[C@H](O)[C@@H]1O [Digoxin]
Overall weighted mean CLR [4, 8]: 151.1 mL/min

CO/N=C(\C(=O)N[C@@H]1C(=O)N2C(C(=O)O)=C(COC(C)=O)CS[C@H]12)c1csc(N)n1 [Cefotaxime]
Overall weighted mean CLR [4, 8]: 119.7 mL/min

Clc1ccc2nsnc2c1NC1=NCCN1 [Tizanidine]
Overall weighted mean CLR [4, 8]: 66.2 mL/min

O=C(O)C1=C(CSc2nnnn2CS(=O)(=O)O)CS[C@@H]2[C@H](NC(=O)[C@H](O)c3ccccc3)C(=O)N12 [Cefonicid]
Overall weighted mean CLR [4, 8]: 18.3 mL/min

CC(C)NCC(O)COc1ccc(CC(N)=O)cc1 (stereo not shown) [Atenolol]
Apparent Freab [1, 6]: -0.247 | Apparent Freab’ [1, 6]: -0.249 | Ionisation at pH 6.5 [2]: Base

CNC(C)Cc1ccc2c(c1)OCO2 (stereo not shown) [MDMA]
Overall weighted mean CLR [4, 8]: 215.0 mL/min

COc1ccc([C@@H]2Sc3ccccc3N(CCN(C)C)C(=O)[C@@H]2OC(C)=O)cc1 [Diltiazem]
Overall weighted mean CLR [4, 8]: 48.0 mL/min

CCC(CC)O[C@@H]1C=C(C(=O)O)C[C@H](N)[C@H]1NC(C)=O [Oseltamivir carboxylate]
Overall weighted mean CLR [4, 8]: 231.7 mL/min

CC1(C)S[C@@H]2[C@H](NC(=O)[C@H](NC(=O)c3cnc4cccnc4c3O)c3ccccc3)C(=O)N2[C@H]1C(=O)O [Apalcillin]
Overall weighted mean CLR [4, 8]: 29.0 mL/min

O=C1Nc2ccc(Cl)cc2C(c2ccccc2Cl)=NC1O (stereo not shown) [Lorazepam]
Overall weighted mean CLR [4, 8]: 0.3 mL/min

CCn1cc(C(=O)O)c(=O)c2cc(F)c(N3CCNCC3)nc21 [Enoxacin]
Overall weighted mean CLR [4, 8]: 256.7 mL/min

CO[C@@]1(NC(=O)CSCC#N)C(=O)N2C(C(=O)O)=C(CSc3nnnn3C)CS[C@@H]21 [Cefmetazole]
Overall weighted mean CLR [4, 8]: 110.2 mL/min

COc1cc2ncnc(Nc3ccc(F)c(Cl)c3)c2cc1OCCCN1CCOCC1 [Gefitinib]
Overall weighted mean CLR [4, 8]: 8.6 mL/min

CN(C)CCC(c1ccc(Cl)cc1)c1ccccn1 (stereo not shown) [Chlorpheniramine]
Papp A→B at 2 h [5]: 28.5 ×10⁻⁶ cm/s

Nc1nnc(-c2cccc(Cl)c2Cl)c(N)n1 [Lamotrigine]
Overall weighted mean CLR [4, 8]: 2.5 mL/min

CN1CCN(c2c(F)cc3c(=O)c(C(=O)O)cn4c3c2SCC4)CC1 [Rufloxacin]
Overall weighted mean CLR [4, 8]: 16.8 mL/min

CO[C@@]1(NC(=O)C(C(=O)O)c2ccc(O)cc2)C(=O)N2C(C(=O)O)=C(CSc3nnnn3C)CO[C@@H]21 (stereo partly shown) [Moxalactam]
Overall weighted mean CLR [4, 8]: 69.5 mL/min

CN[C@@H]1CCc2[nH]c3ccc(C(N)=O)cc3c2C1 [Frovatriptan]
Overall weighted mean CLR [4, 8]: 73.5 mL/min

CC(C)NCC(O)COc1cccc2[nH]ccc12 (stereo not shown) [Pindolol]
Overall weighted mean CLR [4, 8]: 210.9 mL/min

CC[C@H](C)C(=O)O[C@H]1C[C@H](O)C=C2C=C[C@H](C)[C@H](CC[C@@H](O)C[C@@H](O)CC(=O)O)[C@H]21 [Pravastatin]
Overall weighted mean CLR [4, 8]: 414.6 mL/min

CCCC(CCC)C(=O)O [Valproic Acid]
Overall weighted mean CLR [4, 8]: 0.2 mL/min

OC(Cn1cncn1)(Cn1cncn1)c1ccc(F)cc1F [Fluconazole]
Apparent Freab [1, 6]: 0.848 | Apparent Freab’ [1, 6]: 0.855 | Freab [1]: 0.85 | CLR [4, 7]: 15.7 mL/min | Overall weighted mean CLR [4, 8]: 15.7 mL/min | CLR Observed [4, 9]: 15.68 mL/min | Papp A→B at 2 h [5]: 36.3 ×10⁻⁶ cm/s

Nc1ncnc2c1ncn2CCOCP(=O)(O)O [Adefovir]
Overall weighted mean CLR [4, 8]: 200.4 mL/min

CN(C)[C@@H]1C(O)=C(C(N)=O)C(=O)[C@@]2(O)C(O)=C3C(=O)c4c(O)cccc4[C@@](C)(O)[C@H]3C[C@@H]12 [Tetracycline]
Apparent Freab [1, 6]: 0.053 | Apparent Freab’ [1, 6]: 0.053 | Freab [1]: 0.05 | CLR [4, 7]: 86.4 mL/min | Overall weighted mean CLR [4, 8]: 86.4 mL/min | CLR Observed [4, 9]: 86.38 mL/min | Papp A→B at 2 h [5]: 1.1 ×10⁻⁶ cm/s

CC(CN1c2ccccc2Sc2ccccc21)N(C)C (stereo not shown) [Promethazine]
Overall weighted mean CLR [4, 8]: 5.9 mL/min

CCN(CC)CCCC(C)Nc1ccnc2cc(Cl)ccc12 (stereo not shown) [Chloroquine]
Overall weighted mean CLR [4, 8]: 167.2 mL/min

CCN1CCC[C@H]1CNC(=O)c1c(OC)ccc(Br)c1OC [Remoxipride]
Overall weighted mean CLR [4, 8]: 35.6 mL/min

CC(C)(C)NC[C@H](O)COc1nsnc1N1CCOCC1 [Timolol]
Overall weighted mean CLR [4, 8]: 125.1 mL/min
